How the values were obtained:
human MCH-1 receptor = target: T1, human MCH-1 receptor (Homo sapiens, UniProt Q99705); experiment: Ca2+ mobilization experiment for the MCH-1 receptor (FLIPR), inhibition of MCH-induced Ca2+ response; assay type: cell-based; conditions: CHO cells stably expressing human MCH-1 receptor, submaximal MCH concentration, read-out: MCH-1 pIC50 (converted)
T1 construct: expressed in transfected cells
Description: The interaction of the compounds of Formula (I) with MCH-1 receptors was assessed in in vitro transient calcium (Ca^2+) mobilization assays in the fluorimetric imaging plate reader (FLIPR) format (Sullivan et al. 1999, Methods Mol Biol 114:125-133). In general, the natural agonist (MCH) is incubated with cells expressing the MCH-1 receptor, which elicits a concentration-dependent transient mobilization of Ca^2+ from internal stores. The interaction of the test compounds with the receptor is assessed in competition experiments. Various concentrations of the test compound are added to the incubation mixture containing the receptor-expressing cells and a submaximal concentration of MCH. The test compound in proportion to its antagonist potency and its concentration inhibits MCH-induced Ca^2+ mobilization.
Cell culture and membrane preparation. Chinese Hamster ovary cells (CHO) stably expressing the human MCH-1 receptor are grown in a 1:1 mixture of Dulbecco's Modified Eagles Medium (DMEM) and HAM's F12 medium including Glutamax™ (Invitrogen), supplemented with 10% heat-inactivated fetal bovine serum and 400 μg/ml geneticin.
Ca^2+ mobilization experiment for the MCH-1 receptor. Twenty-four hours before the experiment, MCH-1 receptor-expressing CHO cells are seeded in 20 μl (5,000 cells per well) into 384-well black wall, clear bottom microtiter plates (Costar). On the day of the experiment, 20 μl per well calcium assay kit containing 10 mM probenicide (Molecular Devices) is added. Cells are loaded for 90 min at 37° C. and 5% CO2 in a cell culture incubator. After loading, 20 μl of serial dilutions of the test compound are added and cells are further incubated for 20 min at room temperature in the dark. After 20 min, 20 μl of a submaximal MCH concentration is added and changes in intracellular calcium are recorded directly in a FLIPR III apparatus (Molecular devices).
Data analysis and results. Data from assays in the presence of compound were calculated as a percentage of total Ca^2+-responses measured in the absence of test compound. Inhibition curves, plotting percent of total Ca^2+-responses versus the log value of the concentration of the test compound, were automatically generated, and sigmoidal inhibition curves were fitted using non-linear regression. The pIC50 values of test compounds were derived from individual curves.

HERG potassium channel = target: T2, HERG potassium channel (Homo sapiens, UniProt Q12809); experiment: hERG-mediated K+ tail current, automated whole-cell patch clamp (PatchXpress 7000A) in HEK293 cells stably transfected with HERG; assay type: cell-based; conditions: measured after 5 minutes of drug application
T2 construct: expressed in transfected cells
T2 sequence (Q12809 whole entry): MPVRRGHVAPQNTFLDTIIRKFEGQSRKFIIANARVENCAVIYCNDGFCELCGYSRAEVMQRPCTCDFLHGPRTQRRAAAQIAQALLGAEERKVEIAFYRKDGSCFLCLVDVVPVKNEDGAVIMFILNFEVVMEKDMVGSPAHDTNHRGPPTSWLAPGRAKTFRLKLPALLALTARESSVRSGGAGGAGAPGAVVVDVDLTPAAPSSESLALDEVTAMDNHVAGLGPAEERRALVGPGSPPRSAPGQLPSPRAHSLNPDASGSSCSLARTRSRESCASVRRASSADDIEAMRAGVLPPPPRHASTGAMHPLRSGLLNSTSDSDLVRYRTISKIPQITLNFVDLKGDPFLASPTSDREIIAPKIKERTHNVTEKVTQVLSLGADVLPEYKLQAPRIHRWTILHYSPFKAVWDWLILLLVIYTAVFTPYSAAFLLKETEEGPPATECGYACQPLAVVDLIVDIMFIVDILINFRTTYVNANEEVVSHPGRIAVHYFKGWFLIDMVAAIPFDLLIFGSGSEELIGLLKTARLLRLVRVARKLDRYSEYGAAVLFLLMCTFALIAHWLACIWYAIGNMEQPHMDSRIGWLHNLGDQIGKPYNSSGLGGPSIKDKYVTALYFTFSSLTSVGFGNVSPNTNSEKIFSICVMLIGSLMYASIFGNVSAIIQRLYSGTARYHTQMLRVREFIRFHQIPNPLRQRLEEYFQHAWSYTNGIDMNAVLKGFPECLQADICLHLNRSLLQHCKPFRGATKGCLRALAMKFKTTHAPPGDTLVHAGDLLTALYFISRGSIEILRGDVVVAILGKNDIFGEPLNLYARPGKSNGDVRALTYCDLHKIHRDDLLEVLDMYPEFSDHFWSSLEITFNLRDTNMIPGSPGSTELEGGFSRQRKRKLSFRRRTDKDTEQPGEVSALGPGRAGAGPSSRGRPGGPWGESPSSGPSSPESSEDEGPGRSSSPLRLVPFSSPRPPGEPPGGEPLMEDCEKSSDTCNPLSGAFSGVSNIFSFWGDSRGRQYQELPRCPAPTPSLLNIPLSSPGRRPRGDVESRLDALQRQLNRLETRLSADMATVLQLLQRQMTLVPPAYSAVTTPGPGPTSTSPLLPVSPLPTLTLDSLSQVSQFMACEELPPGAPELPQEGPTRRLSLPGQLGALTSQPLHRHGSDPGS
Text: To determine the extent of block the residual current was compared with vehicle pre-treatment.

T1 sequence (Q99705 whole entry): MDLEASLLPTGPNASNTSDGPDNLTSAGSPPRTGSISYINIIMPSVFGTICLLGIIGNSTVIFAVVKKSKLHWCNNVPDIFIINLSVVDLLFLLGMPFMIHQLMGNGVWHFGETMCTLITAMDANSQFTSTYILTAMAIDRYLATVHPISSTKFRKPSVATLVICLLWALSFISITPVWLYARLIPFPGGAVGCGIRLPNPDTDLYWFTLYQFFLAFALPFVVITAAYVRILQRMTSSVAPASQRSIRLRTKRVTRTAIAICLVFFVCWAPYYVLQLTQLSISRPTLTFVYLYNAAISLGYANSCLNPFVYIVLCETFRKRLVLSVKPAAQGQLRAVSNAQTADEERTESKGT

Structure (SMILES) | IC50 (human MCH-1 receptor) | melting point | hERG-reduction (%) at 3 μM (HERG potassium channel)
O=c1cc(OCc2ccccc2)ccn1-c1ccc(N2CCC3(CC2)CNC3)cc1 [Compound 1-1] | 79.4 nM | – | –
O=c1cc(OCc2ccccc2)ccn1-c1ccc(N2CCC3(CCCNC3)CC2)cc1 [Compound 1-2] | 50.1 nM | 141.5 °C | –
O=c1cc(OCc2ccccc2)ccn1-c1ccc(N2CCC3(CC2)CNCCO3)cc1 [Compound 1-3] | 126 nM | – | –
O=c1cc(OCc2ccccc2)ccn1-c1ccc(N2CCCC3(CCNC3)C2)cc1 (stereo not drawn) [Compound 1-4] | 31.6 nM | – | –
O=c1cc(OCc2ccccc2)ccn1-c1ccc(N2CC3(CCNCC3)C2)cc1 [Compound 1-5] | 31.6 nM | 203.2 °C | –
O=c1cc(OCc2ccccc2)ccn1-c1ccc(N2CCC3(CCCNC3)C2)cc1 (stereo not drawn) [Compound 1-6] | 25.1 nM | – | –
O=c1cc(OCc2ccccc2)ccn1-c1ccc(N2CCC3(CCNCC3)C2)cc1 [Compound 1-7] | 63.1 nM | 236.3 °C | −1.8%
CCN1CCC2(CC1)CN(c1ccc(-n3ccc(OCc4ccccc4)cc3=O)cc1)C2 [Compound 1-8] | 63.1 nM | – | –
O=c1cc(OCc2ccccc2)ccn1-c1ccc(N2CC3(CCN(C4CC4)CC3)C2)cc1 [Compound 1-9] | 100 nM | 276.5 °C | –
O=C1CC2(CCNCC2)CN1c1ccc(-n2ccc(OCc3ccccc3)cc2=O)cc1 [Compound 1-10] | 79.4 nM | – | –
O=C1N(c2ccc(-n3ccc(OCc4ccccc4)cc3=O)cc2)CC12CCNCC2 [Compound 1-11] | 50.1 nM | – | –
O=c1cc(OCc2ccccc2)ccn1-c1ccc(N2CC3(CCNCC3)C2)cc1 [Compound 1-12] | 25.1 nM | 231 °C | 0.7%
CN1CCC2(CC1)CCN(c1ccc(-n3ccc(OCc4ccccc4)cc3=O)cc1)C2 [Compound 1-14] | 31.6 nM | – | –
Cc1cc(-n2ccc(OCc3ccccc3)cc2=O)ccc1N1CC2(CCNCC2)C1 [Compound 2-1] | 25.1 nM | 164.6 °C | 15.6%
COc1cc(-n2ccc(OCc3ccccc3)cc2=O)ccc1N1CC2(CCNCC2)C1 [Compound 2-2] | 39.8 nM | – | –
O=c1cc(OCc2ccccc2)ccn1-c1ccc(N2CC3(CCNCC3)C2)c(Cl)c1 [Compound 2-3] | 25.1 nM | – | –
CN1CCC2(CC1)CN(c1ccc(-n3ccc(OCc4ccccc4)cc3=O)cc1Cl)C2 [Compound 2-4] | 31.6 nM | – | –
O=c1cc(/C=C/c2ccccc2)ccn1-c1ccc(N2CC3(CCNCC3)C2)cc1 [Compound 3-1] | 63.1 nM | – | –
O=c1cc(OCc2ccc(F)cc2)ccn1-c1ccc(N2CC3(CCNCC3)C2)cc1 [Compound 3-2] | 39.8 nM | – | –
O=c1cc(COc2ccccc2)ccn1-c1ccc(N2CC3(CCNCC3)C2)cc1 [Compound 3-3] | 501 nM | 292.7 °C | –

— patent US8158643B2, “Substituted diaza-spiro-pyridinone derivatives for use in MCH-1 mediated diseases” (Janssen Pharmaceutica N.V., priority 2006, dated 2012)
